For ten compounds, TGI results are on record in PubChem BioAssay (NCI).

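The compound was tested at five concentrations on cells cultured in 96-well plates, with a 48-hour exposure period. At the TGI there is no net growth.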

Test in all cases: DTP human tumour cell line panel, 48 h
In test [1] the test system is MDA-MB-435.
The test system of test [2] is HCC-2998 colon.
The test system of test [3] is DU-145 prostate.
Test [4] deals with COLO 205 colon.
For test [5], the system named is SK-MEL-28 melanoma.
Test [6] concerns PC-3 prostate.
Test [7] has as its system NCI-H226 lung.
Test [8] relates to RXF 393 renal.
Test [9] concerns A549 NSCLC.
The test system of test [10] is UO-31 renal.
Test [11] deals with SF-268 CNS.
In test [12] the test system is SW-620 colon.
Test [13] has as its system HOP-62 NSCLC.
The subject of test [14] is 786-0 renal.

Broadly, the TGI is the concentration giving total growth inhibition. High values mean lower sensitivity of the cells, low ones greater sensitivity of the cells.

As to `COC(=O)C(Cc1ccccc1)NC(=O)C(CCC(=O)OCc1ccccc1)NC(=O)OC(C)(C)C` (stereo not given), the TGI in test [1], in test [2], in [3], in test [4], in test [5] and in test [6] was greater than 100 µM each time. Besides, the total growth inhibition concentration (TGI) in [7], in test [8], in test [9], in test [10], in test [11] and in [12] was greater than 100 µM throughout. Moreover, the TGI in test [13] and in test [14] was greater than 100 µM each time.
Regarding `COc1cccc(C(=O)Nc2c3ccccc3nc3ccccc23)c1OC`, the total growth inhibition concentration (TGI) in [1], in test [2], in [3], in [4], in test [5] and in test [6] was greater than 100 µM each time. Also, the TGI is greater than 100 µM in test [7]; 72.2 µM in test [8]; greater than 100 µM in test [9]; 14.7 µM in test [10]; greater than 100 µM in [11]; greater than 100 µM in [12]. The total growth inhibition concentration (TGI) in test [13] and in test [14] was greater than 100 µM in each case.
As to `Cc1c(-c2ccccc2)[nH]c2ccc(Cl)cc2c1=O`, the TGI in [1] was 57.3 µM; in test [2], greater than 100 µM; in test [3], greater than 100 µM; in [4], greater than 100 µM; in [5], greater than 100 µM; in test [6] it was greater than 100 µM. Moreover, the TGI in [7] was greater than 100 µM; in test [8] it was 57.6 µM; in [9] it was 0.205 µM; in test [10], 0.507 µM; in test [11], greater than 100 µM; in [12] it was greater than 100 µM. For the same compound, the concentration for total growth inhibition (TGI) is 50.2 µM in test [13] and greater than 100 µM in [14].
For the compound `CC(C)/C(Cl)=N/OC(=O)Nc1cccc(C(F)(F)F)c1`, the TGI in test [1] is 26.9 µM; in test [2] it was 30 µM; in [3] it was 34.5 µM; in test [4], 3.46 µM; in test [5] it was 10.9 µM; in [6], 29.8 µM. The total growth inhibition concentration (TGI) is 30.7 µM in test [7]; 18.9 µM in test [8]; 39.1 µM in test [9]; 22.9 µM in [10]; greater than 64.9 µM in [11]; 1.8 µM in test [12]. Further, the concentration for total growth inhibition (TGI) in [13] came out at 32.1 µM; in [14], 7.52 µM.
As for `C=C[C@]1(O)CCC[C@]2(C)C(=O)CCC12C` (stereo not given in full), the total growth inhibition concentration (TGI) in test [1], in test [2], in test [3], in [4], in [5] and in test [6] was greater than 100 µM each time. Further, the TGI in test [7], in test [8], in test [9], in test [10], in [11] and in test [12] was greater than 100 µM in each case. Also, the TGI in test [13] and in [14] was greater than 100 µM each time.
In the case of `C=CC(CBr)CCC(Br)C(C)(C)Br` (stereo not given), the TGI in test [1], in test [2], in [3], in test [4], in test [5] and in test [6] was greater than 10 µM in each case. For the same compound, the TGI in test [7], in test [8], in test [9], in [10], in test [11] and in test [12] was greater than 10 µM in each case. The TGI in [13] and in test [14] was greater than 10 µM in each case.
On to `Cc1ccc(/C=N/Nc2nc3ccccc3s2)s1`, for which the TGI in [1], in test [2], in test [3], in test [4], in [5] and in test [6] was greater than 100 µM throughout. The TGI in test [7], in test [8], in [9], in [10], in test [11] and in [12] was greater than 100 µM throughout. In addition, the TGI in test [13] is 89.4 µM; in [14] it was greater than 100 µM.
As for `COc1ccc2c(c1)CCN=C2Cc1ccccc1CCCl`, the TGI in [1] was 45.4 µM; in [2], 42.1 µM; in [3] it was greater than 100 µM; in [4], 40 µM; in test [5], greater than 100 µM; in test [6], greater than 100 µM. Further, the TGI is 83.5 µM in test [7]; 71.7 µM in test [8]; greater than 100 µM in [9]; 43.9 µM in test [10]; greater than 100 µM in test [11]; greater than 100 µM in test [12]. The TGI in test [13] and in [14] was greater than 100 µM each time.
As to `CN(C)C(=S)N1C(=S)N(c2ccccc2)C(=Nc2ccccc2)C1=Nc1ccccc1`, the concentration for total growth inhibition (TGI) in [1], in test [2], in test [3], in test [4], in test [5] and in test [6] was greater than 100 µM in each case. Also, the TGI in test [7], in test [8], in [9], in test [10], in [11] and in test [12] was greater than 100 µM each time. Also, the TGI in [13] and in test [14] was greater than 100 µM each time.
Consider `Cc1cc(N)ccc1N=Nc1ccc(S(=O)(=O)CCOS(=O)(=O)O)cc1`, for which the TGI in [1] is 0.502 µM; in test [2], 6.74 µM; in test [3] it was greater than 100 µM; in [4], 6.08 µM; in test [5] it was 19 µM; in test [6], 12.7 µM. The concentration for total growth inhibition (TGI) in test [7] amounted to 15.6 µM; in test [8], 23.7 µM; in [9] it was 21.5 µM; in [10], 8.63 µM; in test [11] it was 21.7 µM; in [12] it was 16.1 µM. Moreover, the concentration for total growth inhibition (TGI) in test [13] amounted to 22.6 µM; in [14], 6.55 µM.
